{
  "source": "patent US12275835B1",
  "about": "“High clarity antimicrobial resins” (Phoenix Plastics L.P., priority 2020, dated 2025)",
  "origin": "cited, not measured here",
  "key": {"Gram-positive bacteria": {"tested_on": "Gram-positive bacteria", "conditions": "within 30 seconds"}, "Gram-negative bacteria": {"tested_on": "Gram-negative bacteria", "conditions": "within 30 seconds"}},
  "data": [
    {"smiles": "N=C(NCCCCCCNC(=N)NC(=N)Nc1ccc(Cl)cc1)NC(=N)Nc1ccc(Cl)cc1", "note": "[chlorhexidine]", "values": [
      {"measurement": "kill of Gram-positive bacteria", "setting": "Gram-positive bacteria", "result": "~100", "unit": "%"},
      {"measurement": "kill of Gram-negative bacteria", "setting": "Gram-negative bacteria", "result": "~100", "unit": "%"}
    ]}
  ]
}
